Assays:
A2A (h) = target: T1, A2A (h) (Homo sapiens, UniProt P29274); experiment: Cerep binding, agonist radioligand; conditions: read-out: % Inhibition of Control Specific Binding
T1 construct: purchased Eurofins Pharma Discovery Services (CEREP diversity panel)

beta 2 (h) = target: T2, beta 2 (h) (Homo sapiens, UniProt P07550); experiment: Cerep binding, agonist radioligand; conditions: read-out: % Inhibition of Control Specific Binding
T2 construct: purchased Eurofins Pharma Discovery Services (CEREP diversity panel)

AT1 (h) = target: T3, AT1 (h) (Homo sapiens, UniProt P30556); experiment: Cerep binding, antagonist radioligand; conditions: read-out: % Inhibition of Control Specific Binding
T3 construct: purchased Eurofins Pharma Discovery Services (CEREP diversity panel)

AT2 (h) = target: T4, AT2 (h) (Homo sapiens, UniProt P50052); experiment: Cerep binding, agonist radioligand; conditions: read-out: % Inhibition of Control Specific Binding
T4 construct: purchased Eurofins Pharma Discovery Services (CEREP diversity panel)

B2 (h) = target: T5, B2 (h) (Homo sapiens, UniProt P30411); experiment: Cerep binding, agonist radioligand; conditions: read-out: % Inhibition of Control Specific Binding
T5 construct: purchased Eurofins Pharma Discovery Services (CEREP diversity panel)
T5 sequence (P30411 whole entry): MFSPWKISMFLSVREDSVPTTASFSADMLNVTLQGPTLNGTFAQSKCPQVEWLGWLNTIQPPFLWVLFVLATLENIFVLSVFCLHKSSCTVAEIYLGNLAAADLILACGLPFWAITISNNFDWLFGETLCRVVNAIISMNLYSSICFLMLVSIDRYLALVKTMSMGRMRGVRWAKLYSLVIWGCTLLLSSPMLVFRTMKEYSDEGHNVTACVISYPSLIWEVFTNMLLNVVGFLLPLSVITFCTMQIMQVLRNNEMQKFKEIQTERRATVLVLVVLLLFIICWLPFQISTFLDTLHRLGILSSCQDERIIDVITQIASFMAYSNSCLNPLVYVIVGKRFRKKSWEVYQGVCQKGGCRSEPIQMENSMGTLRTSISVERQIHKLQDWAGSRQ

CB2 (h) = target: T6, CB2 (h) (Homo sapiens, UniProt P34972); experiment: Cerep binding, agonist radioligand; conditions: read-out: % Inhibition of Control Specific Binding
T6 construct: purchased Eurofins Pharma Discovery Services (CEREP diversity panel)

CCK1 (CCKA) (h) = target: T7, CCK1 (CCKA) (h) (Homo sapiens, UniProt P32238); experiment: Cerep binding, agonist radioligand; conditions: read-out: % Inhibition of Control Specific Binding
T7 construct: purchased Eurofins Pharma Discovery Services (CEREP diversity panel)

CCK2 (CCKB) (h) = target: T8, CCK2 (CCKB) (h) (Homo sapiens, UniProt P32239); experiment: Cerep binding, agonist radioligand; conditions: read-out: % Inhibition of Control Specific Binding
T8 construct: purchased Eurofins Pharma Discovery Services (CEREP diversity panel)

D2S (h) = target: T9, D2S (h) (Homo sapiens, UniProt P14416); experiment: Cerep binding, antagonist radioligand; conditions: read-out: % Inhibition of Control Specific Binding
T9 construct: purchased Eurofins Pharma Discovery Services (CEREP diversity panel)

D3 (h) = target: T10, D3 (h) (Homo sapiens, UniProt P35462); experiment: Cerep binding, antagonist radioligand; conditions: read-out: % Inhibition of Control Specific Binding
T10 construct: purchased Eurofins Pharma Discovery Services (CEREP diversity panel)
T10 sequence (P35462 whole entry): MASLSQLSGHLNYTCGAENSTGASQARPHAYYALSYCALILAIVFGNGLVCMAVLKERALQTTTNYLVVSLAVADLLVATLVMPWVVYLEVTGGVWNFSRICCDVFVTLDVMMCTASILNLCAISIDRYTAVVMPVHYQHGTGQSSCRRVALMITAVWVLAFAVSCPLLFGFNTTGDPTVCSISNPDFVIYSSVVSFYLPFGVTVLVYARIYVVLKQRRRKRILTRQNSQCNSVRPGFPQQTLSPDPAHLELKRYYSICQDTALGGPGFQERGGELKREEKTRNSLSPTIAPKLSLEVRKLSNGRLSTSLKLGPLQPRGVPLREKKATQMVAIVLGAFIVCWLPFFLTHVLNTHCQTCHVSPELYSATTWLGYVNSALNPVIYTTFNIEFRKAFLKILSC

D4.4 (h) = target: T11, D4.4 (h) (Homo sapiens, UniProt P21917); experiment: Cerep binding, antagonist radioligand; conditions: read-out: % Inhibition of Control Specific Binding
T11 construct: purchased Eurofins Pharma Discovery Services (CEREP diversity panel)

ETA (h) = target: T12, ETA (h) (Homo sapiens, UniProt P25101); experiment: Cerep binding, agonist radioligand; conditions: read-out: % Inhibition of Control Specific Binding
T12 construct: purchased Eurofins Pharma Discovery Services (CEREP diversity panel)

ETB (h) = target: T13, ETB (h) (Homo sapiens, UniProt P24530); experiment: Cerep binding, agonist radioligand; conditions: read-out: % Inhibition of Control Specific Binding
T13 construct: purchased Eurofins Pharma Discovery Services (CEREP diversity panel)
T13 sequence (P24530 27-442): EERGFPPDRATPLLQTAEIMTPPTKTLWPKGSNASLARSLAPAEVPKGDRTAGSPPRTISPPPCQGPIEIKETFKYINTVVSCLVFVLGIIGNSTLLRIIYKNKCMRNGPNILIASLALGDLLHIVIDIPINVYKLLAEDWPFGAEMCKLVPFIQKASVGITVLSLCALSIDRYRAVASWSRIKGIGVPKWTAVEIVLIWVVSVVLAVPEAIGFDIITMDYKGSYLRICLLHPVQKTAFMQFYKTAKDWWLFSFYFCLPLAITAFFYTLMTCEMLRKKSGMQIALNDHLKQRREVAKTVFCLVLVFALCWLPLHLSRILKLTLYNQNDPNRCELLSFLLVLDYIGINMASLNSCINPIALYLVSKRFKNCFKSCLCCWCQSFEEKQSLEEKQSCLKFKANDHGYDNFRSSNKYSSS

GABA (non-selective) = experiment: Cerep binding, agonist radioligand; conditions: 5 µM
kainate = experiment: Cerep binding, agonist radioligand; conditions: 5 µM
H1 (h) = target: T14, H1 (h) (Homo sapiens, UniProt P35367); experiment: Cerep binding, antagonist radioligand; conditions: read-out: % Inhibition of Control Specific Binding
T14 construct: purchased Eurofins Pharma Discovery Services (CEREP diversity panel)
T14 sequence (P35367 whole entry): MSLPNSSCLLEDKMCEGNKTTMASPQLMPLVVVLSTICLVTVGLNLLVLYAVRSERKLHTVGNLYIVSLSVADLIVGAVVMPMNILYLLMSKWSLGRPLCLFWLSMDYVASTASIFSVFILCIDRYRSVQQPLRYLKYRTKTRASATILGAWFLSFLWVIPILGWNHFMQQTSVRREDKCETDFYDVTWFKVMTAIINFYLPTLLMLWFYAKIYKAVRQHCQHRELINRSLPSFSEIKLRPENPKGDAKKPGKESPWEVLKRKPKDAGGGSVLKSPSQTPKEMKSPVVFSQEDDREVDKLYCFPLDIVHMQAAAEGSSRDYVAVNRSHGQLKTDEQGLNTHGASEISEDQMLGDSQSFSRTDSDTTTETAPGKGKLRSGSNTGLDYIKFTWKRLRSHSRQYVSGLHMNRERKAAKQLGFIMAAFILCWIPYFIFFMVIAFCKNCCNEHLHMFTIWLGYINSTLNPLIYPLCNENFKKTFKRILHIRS

H3 (h) = target: T15, H3 (h) (Homo sapiens, UniProt Q9Y5N1); experiment: Cerep binding, agonist radioligand; conditions: read-out: % Inhibition of Control Specific Binding
T15 construct: purchased Eurofins Pharma Discovery Services (CEREP diversity panel)
T15 sequence (Q9Y5N1 whole entry): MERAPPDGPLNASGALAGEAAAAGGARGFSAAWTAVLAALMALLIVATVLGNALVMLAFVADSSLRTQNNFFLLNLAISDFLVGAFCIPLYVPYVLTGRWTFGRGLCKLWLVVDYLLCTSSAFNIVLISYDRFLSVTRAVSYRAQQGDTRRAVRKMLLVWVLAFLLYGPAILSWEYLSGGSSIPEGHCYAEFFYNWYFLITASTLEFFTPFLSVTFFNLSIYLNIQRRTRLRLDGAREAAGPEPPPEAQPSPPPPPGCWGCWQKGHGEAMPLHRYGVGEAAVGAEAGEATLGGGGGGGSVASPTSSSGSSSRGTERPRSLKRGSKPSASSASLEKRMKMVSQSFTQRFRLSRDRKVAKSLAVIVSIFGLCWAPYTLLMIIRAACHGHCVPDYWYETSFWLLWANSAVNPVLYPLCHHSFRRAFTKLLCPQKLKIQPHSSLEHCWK

I2 = experiment: Cerep binding, antagonist radioligand; conditions: 5 µM
CysLT1 (LTD4) (h) = target: T16, CysLT1 (LTD4) (h) (Homo sapiens, UniProt Q9Y271); experiment: Cerep binding, agonist radioligand; conditions: read-out: % Inhibition of Control Specific Binding
T16 construct: purchased Eurofins Pharma Discovery Services (CEREP diversity panel)

MC4 (h) = target: T17, MC4 (h) (Homo sapiens, UniProt P32245); experiment: Cerep binding, agonist radioligand; conditions: read-out: % Inhibition of Control Specific Binding
T17 construct: purchased Eurofins Pharma Discovery Services (CEREP diversity panel)
T17 sequence (P32245 whole entry): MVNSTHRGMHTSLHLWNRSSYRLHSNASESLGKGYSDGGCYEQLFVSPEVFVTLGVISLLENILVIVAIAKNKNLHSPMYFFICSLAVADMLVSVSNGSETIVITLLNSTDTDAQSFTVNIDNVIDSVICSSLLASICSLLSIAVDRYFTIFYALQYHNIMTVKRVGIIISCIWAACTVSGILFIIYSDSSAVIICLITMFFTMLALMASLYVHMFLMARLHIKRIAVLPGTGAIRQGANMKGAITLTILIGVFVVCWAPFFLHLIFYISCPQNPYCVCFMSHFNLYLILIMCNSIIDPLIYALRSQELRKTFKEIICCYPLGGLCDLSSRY

M (non-selective) = experiment: Cerep binding, antagonist radioligand; conditions: 5 µM
NK1 (h) = target: T18, NK1 (h) (Homo sapiens, UniProt P25103); experiment: Cerep binding, agonist radioligand; conditions: read-out: % Inhibition of Control Specific Binding
T18 construct: purchased Eurofins Pharma Discovery Services (CEREP diversity panel)

NOP (ORL1) (h) = target: T19, NOP (ORL1) (h) (Homo sapiens, UniProt P41146); experiment: Cerep binding, agonist radioligand; conditions: read-out: % Inhibition of Control Specific Binding
T19 construct: purchased Eurofins Pharma Discovery Services (CEREP diversity panel)

PCP = experiment: Cerep binding, antagonist radioligand; conditions: 5 µM
EP2 (h) = target: T20, EP2 (h) (Homo sapiens, UniProt P43116); experiment: Cerep binding, agonist radioligand; conditions: read-out: % Inhibition of Control Specific Binding
T20 construct: purchased Eurofins Pharma Discovery Services (CEREP diversity panel)

IP (PGI2) (h) = target: T21, IP (PGI2) (h) (Homo sapiens, UniProt P43119); experiment: Cerep binding, agonist radioligand; conditions: read-out: % Inhibition of Control Specific Binding
T21 construct: purchased Eurofins Pharma Discovery Services (CEREP diversity panel)

P2X = experiment: Cerep binding, agonist radioligand; conditions: 5 µM
P2Y = experiment: Cerep binding, agonist radioligand; conditions: 5 µM
5-HT (non-selective) = experiment: Cerep binding, agonist radioligand; conditions: 5 µM
[1] = system: sigma (non-selective) (h); experiment: Cerep binding, agonist radioligand; design: species or system human; conditions: 5 µM
PR (h) = target: T22, PR (h) (Homo sapiens, UniProt P06401); experiment: Cerep binding, agonist radioligand; conditions: read-out: % Inhibition of Control Specific Binding
T22 construct: purchased Eurofins Pharma Discovery Services (CEREP diversity panel)

TRH1 (h) = target: T23, TRH1 (h) (Homo sapiens, UniProt P34981); experiment: Cerep binding, agonist radioligand; conditions: read-out: % Inhibition of Control Specific Binding
T23 construct: purchased Eurofins Pharma Discovery Services (CEREP diversity panel)

V1a (h) = target: T24, V1a (h) (Homo sapiens, UniProt P37288); experiment: Cerep binding, agonist radioligand; conditions: read-out: % Inhibition of Control Specific Binding
T24 construct: purchased Eurofins Pharma Discovery Services (CEREP diversity panel)

[2] = system: Ca2+ channel (L, dihydropyridine site); experiment: Cerep binding, antagonist radioligand; conditions: 5 µM
[3] = system: Ca2+ channel (L, verapamil site) (phenylalkylamine); experiment: Cerep binding, antagonist radioligand; conditions: 5 µM
KV channel = experiment: Cerep binding, antagonist radioligand; conditions: 5 µM
Na+ channel (site 2) = experiment: Cerep binding, antagonist radioligand; conditions: 5 µM
[4] = target: T25, norepinephrine transporter (h) (Homo sapiens, UniProt P23975); experiment: Cerep binding, antagonist radioligand; conditions: read-out: % Inhibition of Control Specific Binding
T25 construct: purchased Eurofins Pharma Discovery Services (CEREP diversity panel)
T25 sequence (P23975 whole entry): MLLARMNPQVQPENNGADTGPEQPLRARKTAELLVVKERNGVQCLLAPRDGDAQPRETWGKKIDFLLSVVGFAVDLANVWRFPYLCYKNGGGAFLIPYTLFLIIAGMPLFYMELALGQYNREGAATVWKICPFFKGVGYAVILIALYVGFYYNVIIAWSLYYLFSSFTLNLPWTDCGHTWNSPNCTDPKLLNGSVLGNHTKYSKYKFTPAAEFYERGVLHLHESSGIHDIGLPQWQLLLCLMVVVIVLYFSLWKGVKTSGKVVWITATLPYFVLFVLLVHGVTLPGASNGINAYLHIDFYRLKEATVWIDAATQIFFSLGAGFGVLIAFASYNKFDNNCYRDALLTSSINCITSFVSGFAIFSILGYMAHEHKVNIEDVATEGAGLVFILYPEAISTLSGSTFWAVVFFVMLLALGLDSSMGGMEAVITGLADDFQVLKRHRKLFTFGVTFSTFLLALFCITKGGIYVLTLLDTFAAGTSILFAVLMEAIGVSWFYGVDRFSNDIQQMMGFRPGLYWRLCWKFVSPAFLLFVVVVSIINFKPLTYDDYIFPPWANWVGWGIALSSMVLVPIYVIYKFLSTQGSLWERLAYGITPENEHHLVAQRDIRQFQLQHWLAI

dopamine transporter (h) = target: T26, dopamine transporter (h) (Homo sapiens, UniProt Q01959); experiment: Cerep binding, antagonist radioligand; conditions: read-out: % Inhibition of Control Specific Binding
T26 construct: purchased Eurofins Pharma Discovery Services (CEREP diversity panel)
T26 sequence (Q01959 whole entry): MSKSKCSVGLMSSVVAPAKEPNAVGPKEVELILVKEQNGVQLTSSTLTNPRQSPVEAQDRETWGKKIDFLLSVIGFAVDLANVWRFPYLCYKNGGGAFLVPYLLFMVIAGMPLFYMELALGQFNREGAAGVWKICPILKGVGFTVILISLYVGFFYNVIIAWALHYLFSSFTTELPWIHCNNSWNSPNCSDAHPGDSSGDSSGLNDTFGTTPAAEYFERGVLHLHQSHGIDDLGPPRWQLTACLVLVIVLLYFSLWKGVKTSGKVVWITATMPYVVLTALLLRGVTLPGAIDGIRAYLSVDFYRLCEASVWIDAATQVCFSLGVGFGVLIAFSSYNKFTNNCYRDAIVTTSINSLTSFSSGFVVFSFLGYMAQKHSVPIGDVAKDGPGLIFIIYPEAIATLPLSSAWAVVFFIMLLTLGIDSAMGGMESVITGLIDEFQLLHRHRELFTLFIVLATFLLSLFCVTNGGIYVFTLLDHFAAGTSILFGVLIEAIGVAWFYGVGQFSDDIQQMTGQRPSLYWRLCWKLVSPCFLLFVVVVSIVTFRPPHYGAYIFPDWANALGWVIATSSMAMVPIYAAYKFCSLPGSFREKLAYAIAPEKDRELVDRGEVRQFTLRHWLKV

5-lipoxygenase (h) = target: T27, 5-lipoxygenase (h) (Homo sapiens, UniProt P09917); experiment: Cerep enzyme and cell-based assays; type: biochemical; conditions: read-out: % Inhibition of Control Values
T27 construct: purchased Eurofins Pharma Discovery Services (CEREP diversity panel)
T27 sequence (P09917 whole entry): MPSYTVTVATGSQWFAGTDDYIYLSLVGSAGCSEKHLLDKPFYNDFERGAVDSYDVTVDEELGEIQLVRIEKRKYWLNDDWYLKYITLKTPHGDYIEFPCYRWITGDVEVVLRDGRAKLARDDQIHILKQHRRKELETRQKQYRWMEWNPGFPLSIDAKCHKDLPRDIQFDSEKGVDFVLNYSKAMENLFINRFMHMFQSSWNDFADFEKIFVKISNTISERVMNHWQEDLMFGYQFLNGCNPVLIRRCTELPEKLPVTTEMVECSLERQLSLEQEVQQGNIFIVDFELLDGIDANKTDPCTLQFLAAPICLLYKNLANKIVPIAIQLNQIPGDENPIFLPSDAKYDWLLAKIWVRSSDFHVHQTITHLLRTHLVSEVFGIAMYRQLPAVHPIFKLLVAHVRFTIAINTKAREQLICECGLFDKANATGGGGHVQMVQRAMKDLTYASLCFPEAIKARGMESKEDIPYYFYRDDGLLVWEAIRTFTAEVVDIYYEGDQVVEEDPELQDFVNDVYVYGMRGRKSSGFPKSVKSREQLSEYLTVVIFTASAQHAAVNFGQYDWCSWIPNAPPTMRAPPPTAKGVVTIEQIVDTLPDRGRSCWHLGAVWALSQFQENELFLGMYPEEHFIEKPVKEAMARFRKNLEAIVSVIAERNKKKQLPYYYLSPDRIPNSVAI

PDE2A1 (h) = target: T28, PDE2A1 (h) (Homo sapiens, UniProt O00408); experiment: Cerep enzyme and cell-based assays; type: biochemical; conditions: read-out: % Inhibition of Control Values
T28 construct: Eurofins Pharma Discovery Services (CEREP diversity panel, outsourced assay)

PDE3A (h) = target: T29, PDE3A (h) (Homo sapiens, UniProt Q14432); experiment: Cerep enzyme and cell-based assays; type: biochemical; conditions: read-out: % Inhibition of Control Values
T29 construct: Eurofins Pharma Discovery Services (CEREP diversity panel, outsourced assay)

[5] = system: COMT (catechol-O-methyl transferase); experiment: Cerep enzyme and cell-based assays; type: biochemical; conditions: 5 µM
HDAC3 (h) = target: T30, HDAC3 (h) (Homo sapiens, UniProt O15379); experiment: Cerep enzyme and cell-based assays; type: biochemical; conditions: read-out: % Inhibition of Control Values
T30 construct: Eurofins Pharma Discovery Services (CEREP diversity panel, outsourced assay)
T30 sequence (O15379 whole entry): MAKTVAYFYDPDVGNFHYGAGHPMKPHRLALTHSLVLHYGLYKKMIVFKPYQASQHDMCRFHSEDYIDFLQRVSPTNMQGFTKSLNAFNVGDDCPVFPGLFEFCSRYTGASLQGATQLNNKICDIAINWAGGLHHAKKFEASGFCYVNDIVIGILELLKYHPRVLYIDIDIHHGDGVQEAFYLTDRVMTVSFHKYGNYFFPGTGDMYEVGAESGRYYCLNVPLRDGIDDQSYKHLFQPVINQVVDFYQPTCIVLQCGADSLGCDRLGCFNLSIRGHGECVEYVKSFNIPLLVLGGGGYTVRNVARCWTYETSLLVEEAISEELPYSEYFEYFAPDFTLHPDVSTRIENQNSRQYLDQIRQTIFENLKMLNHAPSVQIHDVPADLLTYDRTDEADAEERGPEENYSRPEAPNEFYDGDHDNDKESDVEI
T30 sequence (Q9Y618 395-489 partner limits assumed): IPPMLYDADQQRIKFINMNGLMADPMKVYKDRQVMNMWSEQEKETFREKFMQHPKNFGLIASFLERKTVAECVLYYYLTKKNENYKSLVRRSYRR

[6] = system: adenylyl cyclase (activator effect); experiment: Cerep enzyme and cell-based assays; type: biochemical; conditions: 5 µM
[7] = system: guanylyl cyclase (h) (activator effect); experiment: Cerep enzyme and cell-based assays; type: biochemical, human; conditions: 5 µM
S6P phosphorylation = experiment: western blot, S6P phosphorylation in PANC-1; conditions: PANC-1, 20 μM, longer incubation times (>3 h)
Procedure: To examine whether PDEδ inhibition by Deltarasin and Deltazinone 1 downregulates the signal transduction via these pathways, we examined the phosphorylation of extracellular signal regulated kinase (Erk) and S6 Ribosomal Protein (S6P) in the oncogenic KRas-dependent Panc-Tu-1 and KRas-independent PANC-1 cells. […] Cells were lysed with RIPA-buffer (20 mM Tris pH 7.5, 150 mM NaCl, 0.5 mM Na2 EDTA, 1 % sodium deoxycholate, 0.1% sodium dodecyl sulfate, 1% IGEPAL supplemented with Complete Mini EDTA-free protease inhibitor (Roche Applied Science) and 1% phosphatase inhibitor cocktail 2 and 3 (P5726 and P0044, Sigma Aldrich), scraped off after 5 min on ice and centrifuged at 14,000g for 20 min at 4 °C. SDS–polyacrylamide gel electrophoresis was carried out with 10–25 μg of whole-cell lysate from each sample. The gels were blotted onto polyvinylidene difluoride membrane (Millipore) and blocked for 1 h at room temperature. […] Blots were scanned on a LI-COR Odyssey imaging system.
Western blots were quantified using ImageJ. The background of the blots was subtracted by applying the rolling ball subtraction with a radius of 50 pixels. Afterwards the integrated intensity of the bands was measured.

Cc1ccc(-n2nc3c(=O)n(CCCC(=O)NCC(C)c4ccccc4)nc(C)c3c2C)cc1 (centres unmarked) [2k]
inhibition at 5 µM (A2A (h)): -6% | inhibition at 5 µM (beta 2 (h)): 9% | inhibition at 5 µM (AT1 (h)): 9% | inhibition at 5 µM (AT2 (h)): 10% | inhibition at 5 µM (B2 (h)): -5% | inhibition at 5 µM (CB2 (h)): 12% | inhibition at 5 µM (CCK1 (CCKA) (h)): 22% | inhibition at 5 µM (CCK2 (CCKB) (h)): -22% | inhibition at 5 µM (D2S (h)): -1% | inhibition at 5 µM (D3 (h)): 18% | inhibition at 5 µM (D4.4 (h)): 2% | inhibition at 5 µM (ETA (h)): -7% | inhibition at 5 µM (ETB (h)): -12% | % Inhibition of Control Specific Binding (GABA (non-selective)): -7% | % Inhibition of Control Specific Binding (kainate): -6% | inhibition at 5 µM (H1 (h)): 2% | inhibition at 5 µM (H3 (h)): -10% | % Inhibition of Control Specific Binding (I2): 39% | inhibition at 5 µM (CysLT1 (LTD4) (h)): 0% | inhibition at 5 µM (MC4 (h)): -1% | % Inhibition of Control Specific Binding (M (non-selective)): 21% | inhibition at 5 µM (NK1 (h)): 3% | inhibition at 5 µM (NOP (ORL1) (h)): 6% | % Inhibition of Control Specific Binding (PCP): -8% | inhibition at 5 µM (EP2 (h)): 6% | inhibition at 5 µM (IP (PGI2) (h)): -4% | % Inhibition of Control Specific Binding (P2X): 1% | % Inhibition of Control Specific Binding (P2Y): 16% | % Inhibition of Control Specific Binding (5-HT (non-selective)): -25% | % Inhibition of Control Specific Binding [1]: 3% | inhibition at 5 µM (PR (h)): 3% | inhibition at 5 µM (TRH1 (h)): 7% | inhibition at 5 µM (V1a (h)): -4% | % Inhibition of Control Specific Binding [2]: -2% | % Inhibition of Control Specific Binding [3]: -23% | % Inhibition of Control Specific Binding (KV channel): -8% | % Inhibition of Control Specific Binding (Na+ channel (site 2)): 4% | inhibition at 5 µM [4]: 8% | inhibition at 5 µM (dopamine transporter (h)): 17% | inhibition at 5 µM (5-lipoxygenase (h)): 1% | inhibition at 5 µM (PDE2A1 (h)): 2% | inhibition at 5 µM (PDE3A (h)): 1% | % Inhibition of Control Values [5]: 11% | inhibition at 5 µM (HDAC3 (h)): 0% | % Inhibition of Control Values [6]: 2% | % Inhibition of Control Values [7]: 3% | S6P phosphorylation (S6P phosphorylation): remained unaffected

Source: paper PMC4843002, “Identification of pyrazolopyridazinones as PDEδ inhibitors” (Nature Communications, 2016)
